Measured values: patent US12427215B2, “Endoscope disinfectant” (Whiteley Corporation Pty Ltd, priority 2019, dated 2025)

Experiment: Solubility of surfactants in the base formulation of Example 12
Assay type: physicochemical
Settings: base solution of water, dipotassium hydrogen phosphate, potassium hydroxide, benzotriazole; without hydrotrope
Experimental: A base solution comprising 907.77 g deionised water, 46.22 g of anhydrous dipotassium hydrogen phosphate, 30.98 g of 48% w/w potassium hydroxide solution and 10.36 g benzotriazole was prepared. In the case of Surfadone LP100 and Makon NF12, these surfactants were insoluble in the base formulation, and so were solublised using the hydrotrope, Triton H66 (see formulations 12-D and 12-F).

solubility in the base formulation: insoluble
SMILES: CCCCCCCCN1CCCC1=O [Surfadone LP100, N-octyl-2-pyrrolidone]
